Results on eight molecules are retold here after patent US20230141600A1, “IMIDAZOPYRAZINE DERIVATIVES” (priority 2020, published 2023).

A word on the IC90: it is the point of the concentration-response curve where the effect stands at 90%.

Structures are written as SMILES.

The first test concerns Acinetobacter baumannii ATCC17961. Description: 90% growth inhibitory concentration (IC90) determination, antimicrobial susceptibility testing. Particulars: Acinetobacter baumannii, ATCC17961, 16 h, 90% growth inhibition, Iso-Sensitest broth, OD 600 nm over 16 h, 35±2° C.; read-out: ATCC 17961 IC90. The test is classed as cell-based. How it is done:
Antimicrobial Susceptibility Testing:
90% Growth Inhibitory Concentration (IC90) Determination
The in vitro antimicrobial activity of the compounds was determined according to the following procedure:
The assay used a 10-points Iso-Sensitest broth medium to measure quantitatively the in vitro activity of the compounds against Acinetobacter baumannii ATCC17961 and ATCC17978.
Stock compounds in DMSO were serially twofold diluted (e.g. range from 50 to 0.097 μM final concentration) in 384 wells microtiter plates and inoculated with 49 μl the bacterial suspension in Iso-Sensitest medium to have a final cell concentration of ˜5×10^(5) CFU/ml in a final volume/well of 50 ul/well. Microtiter plates were incubated at 35±2° C.
Bacterial cell growth was determined with the measurement of optical density at λ=600 nm each minutes over a time course of 16 h. Growth inhibition was calculated during the logarithmic growth of the bacterial cells with determination of the concentration inhibiting 50% (IC50) and 90% (IC90) of the growth.
Table 2 provides the 90% growth inhibitory concentrations (IC90) in micromoles per liter of the compounds of present invention obtained against the strain Acinetobacter baumannii ATCC17961.
For `CCc1cc(Nc2nccn3c(-c4ccc(OC(F)F)c(F)c4F)cnc23)ccc1C(=O)N1CCN(C(=O)C2CC[N+](C)(CC3CNC3)CC2)CC1` (centres unmarked) [Example 81, 1-(Azetidin-3-ylmethyl)-4-(4-(4-((3-(4-(difluoromethoxy)-2,3-difluorophenyl)imidazo[1,2-a]pyrazin-8-yl)amino)-2-ethylbenzoyl)piperazine-1-carbonyl)-1-methylpiperidin-1-ium 2,2,2-trifluoroacetate], the IC90 came to 107 nM.

As to `CCc1cc(Nc2nccn3c(-c4ccc(OC(F)F)c(F)c4F)cnc23)ccc1C(=O)N1CCN(C(=O)C2CC[N+](C)(CCN)CC2)CC1` (centres unmarked) [Example 83, [4-[1-(2-aminoethyl)-1-methyl-piperidin-1-ium-4-carbonyl]piperazin-1-yl]-[4-[[3-[4-(difluoromethoxy)-2,3-difluoro-phenyl]imidazo[1,2-a]pyrazin-8-yl]amino]-2-ethyl-phenyl]methanone bis(2,2,2-trifluoroacetate)], the IC90 turned out to be 127 nM.

With `CCc1cc(Nc2nccn3c(-c4ccc(OC(F)F)c(F)c4F)cnc23)ccc1C(=O)N1CCN(C(=O)C2CC[N+](C)(CC3CCNC3)CC2)CC1` (centres unmarked) [Example 84, [4-[[3-[4-(difluoromethoxy)-2,3-difluoro-phenyl]imidazo[1,2-a]pyrazin-8-yl]amino]-2-ethyl-phenyl]-[4-[1-methyl-1-(pyrrolidin-3-ylmethyl)piperidin-1-ium-4-carbonyl]piperazin-1-yl]methanone bis(2,2,2-trifluoroacetate)], the IC90 was 132 nM.

In the case of `CCc1cc(Nc2nccn3c(-c4ccc(OC(F)F)c(F)c4F)cnc23)ccc1C(=O)N1CCN(C(=O)C2CC[N+](C)(CCNC)CC2)CC1` (centres unmarked) [Example 85, [4-[[3-[4-(difluoromethoxy)-2,3-difluoro-phenyl]imidazo[1,2-a]pyrazin-8-yl]amino]-2-ethyl-phenyl]-[4-[1-methyl-1-[2-(methylamino)ethyl]piperidin-1-ium-4-carbonyl]piperazin-1-yl]methanone bis(2,2,2-trifluoroacetate)], the IC90 was 147 nM.

For `CCc1cc(Nc2nccn3c(-c4ccc(OC(F)F)c(F)c4F)cnc23)ccc1C(=O)N1CCN(C(=O)C2CC[N+](C)(CC34CC(N)(C3)C4)CC2)CC1` (centres unmarked) [Example 86, [4-[1-[(3-amino-1-bicyclo[1.1.1]pentanyl)methyl]-1-methyl-piperidin-1-ium-4-carbonyl]piperazin-1-yl]-[4-[[3-[4-(difluoromethoxy)-2,3-difluoro-phenyl]imidazo[1,2-a]pyrazin-8-yl]amino]-2-ethyl-phenyl]methanone bis(2,2,2-trifluoroacetate)], the IC90 is 168 nM.

On to `CCc1cc(Nc2nccn3c(-c4ccc(OC(F)F)c(F)c4F)cnc23)ccc1C(=O)NCC1CC[N+](C)(CC2CNC2)C1` (centres unmarked) [Example 88, N-[[1-(azetidin-3-ylmethyl)-1-methyl-pyrrolidin-1-ium-3-yl]methyl]-4-[[3-[4-(difluoromethoxy)-2,3-difluoro-phenyl]imidazo[1,2-a]pyrazin-8-yl]amino]-2-ethyl-benzamide bis(2,2,2-trifluoroacetate)], for which the IC90 came out at 485 nM.

Staying with this test, now noted: Acinetobacter baumannii, ATCC17961, 16 h, read-out: ATCC 17961 IC90.
For the molecule `CCc1cc(Nc2nccn3c(-c4ccc(OC(F)F)c(F)c4F)cnc23)ccc1C(=O)NCCCNC(=O)C1CC[N+](C)(CC2CCNC2)CC1` (centres unmarked) [Example 82, N-[3-[[4-[[3-[4-(Difluoromethoxy)-2,3-difluoro-phenyl]imidazo[1,2-a]pyrazin-8-yl]amino]-2-ethyl-benzoyl]amino]propyl]-1-methyl-1-(pyrrolidin-3-ylmethyl)piperidin-1-ium-4-carboxamide bis (2,2,2-trifluoroacetate)], the IC90 turned out to be 110 nM.

Take `CCc1cc(Nc2nccn3c(-c4ccc(OC(F)F)c(F)c4F)cnc23)ccc1C(=O)NCC1CC[N+](C)(CC2CNC2)CC1` (centres unmarked) [Example 87, N-[[1-(azetidin-3-ylmethyl)-1-methyl-piperidin-1-ium-4-yl]methyl]-4-[[3-[4-(difluoromethoxy)-2,3-difluoro-phenyl]imidazo[1,2-a]pyrazin-8-yl]amino]-2-ethyl-benzamide Diformate]: the IC90 was determined as 318 nM.
